Columns and labels:
[1] = system: alkaline phosphatase activity in T47D cells; assay: Effects of progestins and antiprogestins on alkaline phosphatase activity in T47D cells; format: cell-based; conditions: Homo sapiens; for IC50: antagonist mode in the presence of 1 nM progesterone, 24 hours; for inhibition at 3 µM: at 3000 nM; for inhibition at 0.3 µM: at 300 nM
Procedure: The purpose of this example is to identify progestins or antiprogestins by determining a compound's effect on alkaline phosphatase activity in T47D cells.
A. Reagents: • Culture medium: Dulbecco's Modified Eagle Medium (DMEM):F12 (1:1) (GIBCO, BRL) supplemented with 5% (v/v) charcoal stripped fetal bovine serum (not heat-inactivated), 100 U/mL penicillin, 100 μg/mL streptomycin, and 2 mM of the GlutaMax® reagent (GIBCO, BRL). • Alkaline phosphatase assay buffer: • I. 0.1M Tris-HCl, pH 9.8, containing 0.2% Triton® X-100 reagent • II. 0.1M Tris-HCl, pH 9.8, containing 4 mM p-nitrophenyl phosphate (Sigma).
Frozen T47D cells are thawed in a 37° C. water bath and diluted to 280,000 cells/mL in culture medium. To each well in a 96-well plate (Falcon, Becton Dickinson Labware), was added 180 μL of diluted cell suspension. Twenty μL of reference or test compounds diluted in the culture medium is then added to each well. When testing for progestin antagonist activity, reference antiprogestins or test compounds are added in the presence of 1 nM progesterone. The cells are incubated at 37° C. in a 5% CO2/humidified atmosphere for 24 hours. For high throughput screening, one concentration of each compound will be tested at 0.3 μg/mL. Based on an average molecular weight of 300 g/mol for the compounds in the library, the concentration is approximately 1 μM. Compounds active in this assay can be tested in dose response assays to determine EC50 and IC50.
C. Alkaline Phosphatase Enzyme Assay: • At the end of treatment, the medium is removed from the plate. Fifty μL of assay buffer I is added to each well. The plates are shaken in a titer plate shaker for 15 minutes. Then 150 μL of assay buffer II is added to each well. Optical density measurements are taken at 5 minute intervals for 30 minutes at a test wavelength of 405 nm.
D. Analysis of Results: Analysis of Dose-Response Data • For reference and test compounds, a dose response curve is generated for dose (X-axis) vs. the rate of enzyme reaction (slope) (Y-axis). Square root-transformed data are used for analysis of variance and nonlinear dose response curve fitting for both agonist and antagonist modes. Huber weighting is used to down-weight the effects of outliers. EC50 or IC50 values are calculated from the retransformed values. JMP® software (SAS Institute, Inc.) is used for both one-way analysis of variance and non-linear dose response analysis in both single dose and dose response studies.
E. Reference Compounds • Progesterone and trimegestone are reference progestins and RU486 is the reference antiprogestin. All reference compounds are run in full dose response curves and the EC50 and IC50 values are calculated.

[2] = in the presence of 1 nM progesterone

Row | melting point | SMILES | inhibition at 3 µM [1, 2] | also measured
1 | 174 to 175 °C | COC(=O)/C=C/c1ccc2c(c1)C(C)(C)CC(=O)N2 [Example 1, Methyl(2E)-3-(4,4-dimethyl-2-oxo-1,2,3,4-tetrahydroquinolin-6-yl)acrylate] |  | 
2 | 204 to 205 °C | COC(=O)/C=C/c1ccc2c(c1)C(C)(C)OC(=O)N2 [Example 2, Methyl(2E)-3-(4,4-dimethyl-2-oxo-1,4-dihydro-2H-3,1-benzoxazin-6-yl)acrylate] |  | 
3 | 190 to 193 °C | CC1(C)OC(=O)Nc2ccc(/C=C/c3ccno3)cc21 [Example 3, 6-[(E)-2-Isoxazol-5-ylvinyl]-4,4-di-methyl-1,4-dihydro-2H-3,1-benzoxazin-2-one] |  | 
4 | 196 to 198 °C | CC1(C)OC(=O)Nc2ccc(/C=C/C(N)=O)cc21 [Example 4, (2E)-3-(4,4-Dimethyl-2-oxo-1,4-dihydro-2H-3,1-benzoxazin-6-yl)acrylamide] |  | IC50 [1]: 50 µM
5 | 198 to 200 °C | C/C(=C\C(N)=O)c1ccc2c(c1)C(C)(C)OC(=O)N2 [Example 5, (2E)-3-(4,4-Dimethyl-2-oxo-1,4-dihydro-2H-3,1-benzoxazin-6-yl)but-2-enamide] |  | IC50 [1]: 50 µM
6 | 219 to 220 °C | CC1(C)OC(=O)Nc2ccc(/C(=C/C(N)=O)c3ccccc3)cc21 [Example 7, (2E)-3-(4,4-Dimethyl-2-oxo-1,4-dihydro-2H-3,1-benzoxazin-6-yl)-3-phenylacrylamide] |  | IC50 [1]: 50 µM
7 | 238 to 240 °C (dec.) | CC1(C)OC(=O)Nc2ccc(/C=C/C#N)cc21 [Example 8, (2E)-3-(4,4-Dimethyl-2-oxo-1,4-dihydro-2H-3,1-benzoxazin-6-yl)acrylonitrile] |  | 
8 | 235 to 236 °C (dec.) | CC1(C)OC(=O)Nc2ccc(C3=CC(=O)OCC3)cc21 [Example 10, 4,4-Dimethyl-6-(6-oxo-3,6-dihydro-2H-pyran-4-yl)-1,4-dihydro-2H-3,1-benzoxazin-2-one] |  | 
9 | 181 to 182 °C | COC(=O)/C=C(\c1ccccc1)c1ccc2c(c1)C(C)(C)OC(=O)N2 [Example 11, Methyl(2E)-3-(4,4-dimethyl-2-oxo-1,4-dihydro-2H-3,1-benzoxazin-6-yl)-3-phenylacrylate] |  | 
10 | 260 to 261 °C (dec.) | CC1(C)OC(=O)Nc2ccc(/C=C/C(=O)O)cc21 [Example 14, (2E)-3-(4,4-Dimethyl-2-oxo-1,4-dihydro-2H-3,1-benzoxazin-6-yl)acrylic acid] | 0% | 
11 | 274 to 275 °C (dec.) | C/C(=C\C(=O)O)c1ccc2c(c1)C(C)(C)OC(=O)N2 [Example 15, (2E)-3-(4,4-Dimethyl-2-oxo-1,4-dihydro-2H-3,1-benzoxazin-6-yl)but-2-enoic acid] | 0% | 
12 | 204 to 207 °C (dec.) | C/C(=C\C(N)=O)c1ccc2c(c1)C1(CCCCC1)OC(=O)N2 [Example 16, (2E)-3-(2-Oxo-1,2-dihydrospiro[3,1-benzoxazine-4,1′-cyclohexan]-6-yl)but-2-enamide] | 0% | 
13 | 208 to 210 °C (dec.) | C/C(=C\C#N)c1ccc2c(c1)C1(CCCCC1)OC(=O)N2 [Example 17, (2E)-3-(2-oxo-1,2-dihydrospiro[3,1-benzoxazine-4,1′-cyclohexan]-6-yl)but-2-enenitrile] |  | inhibition at 0.3 µM [1, 2]: 60%
14 | 235 to 238 °C (dec.) | CC/C(=C\C(N)=O)c1ccc2c(c1)C1(CCCCC1)OC(=O)N2 [Example 18, (2E)-3-(2-Oxo-1,2-dihydrospiro[3,1-benzoxazine-4,1′-cyclohexan]-6-yl)pent-2-enamide] | 22% | 
15 | 173 to 174 °C | CC/C(=C\C#N)c1ccc2c(c1)C1(CCCCC1)OC(=O)N2 [Example 19, (2E)-3-(2-Oxo-1,2-dihydrospiro[3,1-benzoxazine-4,1′-cyclohexan]-6-yl)pent-2-enenitrile] |  | inhibition at 0.03 µM ([1]; at 30 nM, in the presence of 1 nM progesterone): 60%
16 | 201 to 203 °C (dec.) | CC(C)/C(=C\C#N)c1ccc2c(c1)C1(CCCCC1)OC(=O)N2 [Example 21, (2E)-4-Methyl-3-(2-oxo-1,2-dihydrospiro[3,1-benzoxazine-4,1′-cyclohexan]-6-yl)pent-2-enenitrile] |  | inhibition at 0.3 µM [1, 2]: 60%
17 | 212 to 213 °C | CCC/C(=C\C(N)=O)c1ccc2c(c1)C(CC)(CC)OC(=O)N2 [Example 24, (2E)-3-(4,4-Diethyl-2-oxo-1,4-dihydro-2H-3,1-benzoxazin-6-yl)hex-2-enamide] | 65% | 
18 | 173 to 179 °C | CCC/C(=C\C=O)c1ccc2c(c1)C(CC)(CC)OC(=O)N2 [Example 26, (2E)-3-(4,4-Diethyl-2-oxo-1,4-dihydro-2H-3,1-benzoxazin-6-yl)hex-2-enal] | 100% | 
